The subject of one series is Cryptococcus neoformans. The series is described as follows: Checkerboard broth microdilution assay on planktonic cells. It is filed as cell-based. Particulars: both strains (ATCC 34872 and 1172). How it is done:
The antifungal effect of BTU-01 combined with AmB was evaluated using the checkerboard broth microdilution assay, according to [Scott et al. (1995)]. Twofold serial dilutions of BTU-01 (0.03–1000.0 μg/mL) and AmB (0.000001–16.0 μg/mL) were respectively added across the rows and columns of the U-bottom 96-well microtiter plates. Thereafter, 100 μL (0.5–2.5 × 10^3 CFU/mL) of fungal inoculum was added and the plates were incubated at 37°C for 72 h. The Fractional Inhibitory Concentration (FIC) of each compound was determined by the ratio of the MIC obtained when the compounds were tested in combination and the MIC of the compounds tested individually. The FIC Index (FICI) was calculated from the sum of the FICBTU–01 and FICAmB, and the value was interpreted as: synergism FICI ≤ 0.5, no interaction 0.5 < FICI < 4.0, and antagonism FICI > 4.0 ([Odds, 2003]).
Background: Dilution methods test growth across graded concentrations, often in twofold steps.

Series [1] in a line: Cytotoxicity, MTT reduction assay. It is filed as cell-based, human. Particulars: human, HEp-2 CCL-23 cells, 24 h, MTT. On the procedure: (§1) The effect of BTU-01 was analyzed on mammalian epithelial cell lines [HEp-2 CCL-23™ (ATCC), LLC-MK2, VERO CCL81 and HeLa (Merck, Brazil)], and the cytotoxicity was evaluated as described by [Longhi et al. (2016)] with modifications. Briefly, cells were cultured in Dulbecco’s Modified Eagle’s medium (DMEM) supplemented with 10% fetal bovine serum (Invitrogen, Brazil), 2 mM L-glutamine, 100 IU/mL penicillin, 100 μg/mL streptomycin, 1% tylosin in flat-bottomed 96-well microtiter plates, in 5% CO2 at 37°C for 48 h. Then, the medium was carefully removed and fresh medium containing twofold serially diluted BTU-01 (0.095–500.0 μg/mL) was added. The cells were incubated for further 24 h under the same conditions. Cell viability was analyzed by the MTT reduction assay according to the manufacturer’s recommendation. The concentration of the compound needed to inhibit the viable cells up to 50 and 90% by regression analysis corresponds to the 50% (CC50) and 90% (CC90) cytotoxic concentrations, respectively.
(§2) The concentration of BTU-01 capable of causing 90% of hemolysis/cytotoxicity was used to calculate the selectivity index (SI) using the following equation: SI = CC90/MIC.
A general note: Tetrazolium dyes change colour on reduction, which living cells bring about.

Another series concerns HEp-2 CCL-23. The series is described as follows: Cytotoxicity, MTT reduction assay. It is filed as cell-based, human. Particulars: SI = CC90/MIC, MIC 62.5 μg/mL. How it is done: as §1, §2

Converted amounts (≈) assume the structure as drawn.

Usually CC50 stands for the concentration giving 50% cytotoxicity. As for `CCCCNC(=S)NC(=O)c1ccccc1` [BTU-01, N-(butylcarbamothioyl) benzamide], in the series with Cryptococcus neoformans, the “decrease in MIC value in combination” value was found to be 16 fold. In series [1], this molecule gave a CC50 at 24 h of 104 µg/mL (≈ 441 µM) and a CC90 at 24 h of 245 µg/mL (≈ 1040 µM). The SI with HEp-2 CCL-23 came to 3.9.

For the origin of these results see paper PMC10028264, “Synergistic antifungal interaction of N-(butylcarbamothioyl) benzamide and amphotericin B against Cryptococcus neoformans” (Frontiers in Microbiology, 2023).
